Consider 97 compounds from ChEMBL document CHEMBL3507680, “University of Dundee, Gates Library screen for HepG2 cell viability”.

This data set in a line: Human HepG2 cell viability assay in 384 well format. Format: toxicity, cell-based. On the set-up: dose 125 nL, time 70.5 hour; concentration not given beside the values. The conditions noted are these: HepG2 cells, read-out: Inhibition.
As to `COCc1nc2nc(O)c3c(n2n1)NC(=O)CC3c1ccccc1Cl` (configuration not stated), the cytotoxicity at 70.5 h amounted to 4.14%.

As for `CN1CCNC(Cc2ccc(-c3ccccc3)cc2)C1=O` (configuration not stated), the cytotoxicity at 70.5 h worked out at 21.5%.

Regarding `Cc1cc(CN(C)Cc2csc(-c3ccc(C(C)C)cc3)n2)no1`, the cytotoxicity at 70.5 h is 14.4%.

As for `CCn1c(=O)nc2n1C(=O)N(c1cccc(Cl)c1)C2`, the cytotoxicity at 70.5 h was -1.37%.

`CCNC(=O)N(C)C(c1cccc(F)c1)c1ccccn1` (configuration not stated): the cytotoxicity at 70.5 h was -14%.

On to `OC(CNC1CCSCC1)c1cccc(OCc2ccccc2)c1` (configuration not stated), for which the cytotoxicity at 70.5 h worked out at 23.4%.

As to `COCCN(C)C[C@@H]1CN(C(=O)c2ccc(O)c(C)c2)C[C@@H]1CO`, the cytotoxicity at 70.5 h was -2.33%.

In the case of `CCc1noc(-c2cccc(C(=O)O)c2)n1`, the cytotoxicity at 70.5 h was 23.7%.

Take `COc1c(CNCc2ccnc(N3CCCC3)c2)c(C)nn1C`: the cytotoxicity at 70.5 h is -0.752%.

On to `Cc1oc(C(=O)O)cc1S(=O)(=O)Nc1cccc(-n2nccc2C)c1`, for which the cytotoxicity at 70.5 h was -5.02%.

`COCc1ncc(CN2CCC(Oc3ccccc3C)CC2)cn1`: the cytotoxicity at 70.5 h was -16.4%.

For `Cc1ncoc1C(=O)N1CCn2c(COCC3CC3)cnc2C1C` (configuration not stated), the cytotoxicity at 70.5 h came to 10.1%.

As to `Cc1nsc(N2CCN(C(=O)Nc3cccc(C#N)c3)CC2)n1`, the cytotoxicity at 70.5 h is -0.0722%.

Take `CCN1CCOCC12CCN(C(=O)Cc1ccccc1)CC2`: the cytotoxicity at 70.5 h was -11.2%.

As to `Cc1cncc(C(=O)N2Cc3ccccc3C3(CCN(C)CC3)C2)c1`, the cytotoxicity at 70.5 h is -14.6%.

Turning to `COCCN1CCCC(c2ncc(C(=O)N(C)C)c(C)n2)C1` (configuration not stated), the cytotoxicity at 70.5 h is -1.17%.

On to `CSc1ccccc1C(=O)N1CCN(C)C2(CCC(=O)N(C)CC2)C1` (configuration not stated), for which the cytotoxicity at 70.5 h is -14.6%.

In the case of `COc1ccc(CN2CCN(C(=O)c3ccc(C)n3C)CC2)cc1`, the cytotoxicity at 70.5 h is -11.9%.

Take `O=C(CCNC(=O)NC1CCN(C2CC2)CC1)NCc1ccccc1`: the cytotoxicity at 70.5 h was -3.29%.

As to `O=c1c2cnc(N3CCCC3)nc2ccn1-c1cccc(F)c1`, the cytotoxicity at 70.5 h was -0.217%.

As to `CCC(NC(=O)CN(C)Cc1ccc(C)o1)c1ccc(C)cc1` (configuration not stated), the cytotoxicity at 70.5 h is -10.3%.

Turning to `O=c1oc2ccccc2n1CCCN1CCCC1c1ccc(O)cc1` (configuration not stated), the cytotoxicity at 70.5 h is -1.72%.

Consider `CCCNC(=O)CCNC(=O)c1sc2ccc(F)cc2c1C`, for which the cytotoxicity at 70.5 h amounted to 31.9%.

As to `Cc1cccc(OCCCNC(=O)NC(C)c2nncn2C)c1` (configuration not stated), the cytotoxicity at 70.5 h was -6.42%.

As for `CCOCCN1CCN(CCC(=O)N2CCCCC2)CC1C` (configuration not stated), the cytotoxicity at 70.5 h was -0.119%.

Turning to `Cc1nn(C)cc1CN1CCc2c(nc(-c3ccccn3)[nH]c2=O)C1`, the cytotoxicity at 70.5 h was -5.77%.

On to `Cc1ccccc1C1CCN(C(=O)CCNS(C)(=O)=O)C1` (configuration not stated), for which the cytotoxicity at 70.5 h is 20.6%.

Turning to `CCOc1ccc(C2SCC(=O)Nc3c2c(=O)[nH]n3C(C)C)cc1` (configuration not stated), the cytotoxicity at 70.5 h is -11.8%.

`Cc1nnc(N2C[C@H]3OCC[C@H]3[C@H](C(=O)NCC3CC3)C2)s1`: the cytotoxicity at 70.5 h is 1.29%.

Consider `Cc1nc(C(=O)N2CCC(c3cc(CCO)n(C)n3)C2)co1` (configuration not stated), for which the cytotoxicity at 70.5 h stood at 16.6%.

Take `O=C(c1cccnc1)N1C[C@@H]2CC[C@H](C1)N(Cc1cc(F)ccc1F)C2`: the cytotoxicity at 70.5 h was -5.88%.

Consider `Cc1nc2ccc(CN3CC4(CCOC4)CCC3=O)cc2[nH]1` (configuration not stated), for which the cytotoxicity at 70.5 h was -1.05%.

Take `Cc1cnn(CC2CN(Cc3nnc(-c4occc4C)o3)CCO2)c1` (configuration not stated): the cytotoxicity at 70.5 h is -18.4%.

Regarding `CCN(C(C)=O)c1nc(CN2CCCC2Cn2cncn2)cs1` (configuration not stated), the cytotoxicity at 70.5 h stood at 17.8%.

Take `O=C(NCC1CC1)C1CN(C(=O)Nc2ccccc2)CC12CCOCC2` (configuration not stated): the cytotoxicity at 70.5 h is -5.6%.

For the compound `O=C(Nc1ccc(-n2ccc(C(=O)O)n2)cc1)c1ccccc1`, the cytotoxicity at 70.5 h was -1.13%.

For the compound `Cc1ncc(C(=O)N2CCC(N3C[C@@H](C)O[C@@H](C)C3)CC2)c(=O)[nH]1`, the cytotoxicity at 70.5 h is 8.83%.

In the case of `CCC(C)c1ccc(NC(=O)C2CCN(C(=O)COC)CC2)cc1` (configuration not stated), the cytotoxicity at 70.5 h is -6.71%.

`Cc1ccc(C(=O)NC2CCN(C(=O)Nc3ccccn3)CC2)s1`: the cytotoxicity at 70.5 h turned out to be 11.7%.

Consider `O=C1[C@H]2CN(Cc3ccccn3)C[C@H]2CN1c1ccsc1`, for which the cytotoxicity at 70.5 h was -6.18%.

Take `CCN(c1ccccc1)S(=O)(=O)c1cc(C(=O)O)cc2c1CCC2`: the cytotoxicity at 70.5 h turned out to be 21.2%.

For the compound `C/C=C(\C)CN1C[C@@H](NC(=O)c2ccc(F)c(F)c2)C[C@H]1C(=O)NCC`, the cytotoxicity at 70.5 h is -12.2%.

Consider `CCc1cc(O)nc(C2CCCN(Cc3ccncc3)C2)n1` (configuration not stated), for which the cytotoxicity at 70.5 h was -1.03%.

Consider `CO[C@H]1CNC[C@@H]1NC(=O)CCc1nc(-c2ccccc2)no1`, for which the cytotoxicity at 70.5 h was -0.167%.

In the case of `CCC(C)(C)C(=O)NCCCOC1CCOC1` (configuration not stated), the cytotoxicity at 70.5 h is 2.9%.

Regarding `Cc1ccc(CNC(CN2CCN(C)CC2)c2ccccc2)cc1C` (configuration not stated), the cytotoxicity at 70.5 h was determined as 35.8%.

`CC(=O)N1CCC2(CC1)CN(C(=O)[C@@H]1CSCN1)c1ccc(Cl)cc12`: the cytotoxicity at 70.5 h was 1.24%.

Regarding `CCC(C)Oc1ccc(CNCCc2c[nH]cn2)cc1Cl` (configuration not stated), the cytotoxicity at 70.5 h is 24.1%.

In the case of `CCCC(C)CN1CCC(n2cc(CCCO)nn2)CC1` (configuration not stated), the cytotoxicity at 70.5 h was -4.4%.

`O=C(c1cccs1)N1CCCn2cnc(COCC3CC3)c2C1`: the cytotoxicity at 70.5 h is -12.8%.

For the compound `Cc1cnc2[nH]c(C(F)(F)F)c(CN3CCSCC3)c2c1`, the cytotoxicity at 70.5 h is -0.92%.

As to `CC(C)NC(=O)N1CCCCC1c1nnc2n1CCNC2` (configuration not stated), the cytotoxicity at 70.5 h came out at 20.4%.

With `Cc1nccc(C(=O)N2CCCN(Cc3nccn3C(C)C)CC2)n1`, the cytotoxicity at 70.5 h was -4.19%.

For `CN1CCCC[C@@H]2[C@H]1[C@@H](c1ccccc1)CCN2S(=O)(=O)N1CCCC1`, the cytotoxicity at 70.5 h is -1.85%.

Regarding `CC(=O)c1cc2ncc(C(=O)NC3CCCC3)cc2[nH]1`, the cytotoxicity at 70.5 h was -3.81%.

On to `COc1ccc(C(=O)C2CCCN(CCCn3cccn3)C2)c(OC)c1` (configuration not stated), for which the cytotoxicity at 70.5 h is 20.9%.

`Cc1cnc(N2C[C@H]3CN(Cc4csc(C)n4)C(=O)[C@H]3C2)nc1`: the cytotoxicity at 70.5 h is -9.66%.

Consider `c1ccc(CO[C@H]2CO[C@@]3(CCN(Cc4ccoc4)C3)C2)nc1`, for which the cytotoxicity at 70.5 h was -18.7%.

Regarding `Cc1cccc(CN(Cc2ccccn2)Cc2ncc(C(C)(C)C)o2)c1`, the cytotoxicity at 70.5 h was -11.5%.

Consider `Cc1n[nH]c(C)c1CC(=O)NCc1ccccc1Cl`, for which the cytotoxicity at 70.5 h is 1.58%.

For `COc1ccc(C2=Nn3c(CCN)nnc3-c3ccccc3C2)cc1`, the cytotoxicity at 70.5 h turned out to be 8.3%.

`Cc1cnc(N2CCC3(CCN(Cc4csc(C)n4)C3=O)C2)nc1` (configuration not stated): the cytotoxicity at 70.5 h is -5.87%.

Take `COCCN1CCN(S(C)(=O)=O)Cc2ccc(C)nc21`: the cytotoxicity at 70.5 h is -2.02%.

For `Cc1ccc(C2CN(CCS(=O)(=O)C(C)C)CCO2)c(C)c1` (configuration not stated), the cytotoxicity at 70.5 h was -1.77%.

As to `N#CCCCn1cnc2c(F)cc(Br)cc2c1=O`, the cytotoxicity at 70.5 h was -5.69%.

Regarding `CNC(=O)[C@@H]1C[C@@H](n2cc(-c3ccc(Cl)cc3)nn2)CN1`, the cytotoxicity at 70.5 h turned out to be 13.9%.

Take `Cn1cc(C(=O)N2CC[C@@H]3[C@@H]2CCN3Cc2cccnc2)cn1`: the cytotoxicity at 70.5 h is -14.5%.

For the compound `COCCN1CCN(CC(=O)NC2(C#N)CCCC2)CC1`, the cytotoxicity at 70.5 h was -8.93%.

As for `CC(C)(C)C(=O)N1CCC(c2cnc(-c3cn[nH]c3)cn2)CC1`, the cytotoxicity at 70.5 h is -4.2%.

In the case of `Cc1cnn(C2CN(CC(O)c3ccc(F)cc3)C2)c1` (configuration not stated), the cytotoxicity at 70.5 h is -5.26%.

As to `Cc1cccn2c(CNC(C)CCc3ccc(O)cc3)cnc12` (configuration not stated), the cytotoxicity at 70.5 h is -7.78%.

Take `Cc1nc(C)c(CC(=O)N2CCC(Oc3ccccc3)CC2)c(=O)[nH]1`: the cytotoxicity at 70.5 h is -7.9%.

In the case of `CCN1CCN(c2ncc(-c3cc(C)no3)c(-c3ccoc3C)n2)CC1`, the cytotoxicity at 70.5 h was -2.3%.

As to `Cc1cc(F)ccc1S(=O)(=O)NCc1cccc(C(=O)N2CCCC2)c1`, the cytotoxicity at 70.5 h is -14.8%.

Take `CC(=O)N1CCc2[nH]c(=O)ccc2C1`: the cytotoxicity at 70.5 h is -6.79%.

As to `COCCC1(C(=O)O)CCCN(Cc2cc3c(cc2C)OCO3)C1` (configuration not stated), the cytotoxicity at 70.5 h was -2.46%.

Take `COCc1nc(CNc2cc(C)nc(-c3ccccc3)n2)no1`: the cytotoxicity at 70.5 h was -8.75%.

As for `CN(Cc1nc2ccsc2c(=O)[nH]1)CC1CCCCC1`, the cytotoxicity at 70.5 h was -6.1%.

For the compound `CC(C)n1ncc2cc(NC(=O)N3CCC(N4CCCC4)C3)cnc21` (configuration not stated), the cytotoxicity at 70.5 h is 1.93%.

Consider `Cc1cc(NC(=O)CN2CCCC2c2noc(C3CC3)n2)n(C)n1` (configuration not stated), for which the cytotoxicity at 70.5 h was -10.4%.

For `O=C(NCc1nn(-c2ccccc2)c2c1CCC2)N1CCSCC1`, the cytotoxicity at 70.5 h came out at 32.7%.

`Cc1nn(C)c(N(C)C)c1CNC1CCCCNC1=O` (configuration not stated): the cytotoxicity at 70.5 h was -4.25%.

On to `CC(=O)c1ccc(S(=O)(=O)NCC2CCN(c3cnccn3)CC2)cc1`, for which the cytotoxicity at 70.5 h is -4.91%.

As for `CNS(=O)(=O)c1ccc(F)c(C(=O)NCc2ccnc(OC)c2)c1`, the cytotoxicity at 70.5 h was 25.8%.

`CCC(O)CN1CCN(C(=O)c2cccn2Cc2cccnc2)CC1` (configuration not stated): the cytotoxicity at 70.5 h was determined as 17.3%.

`CC(=O)OC1CN(c2nc3c(C(F)(F)F)cccc3s2)C1`: the cytotoxicity at 70.5 h is -11.8%.

Consider `CCc1cc(=O)n(CC(=O)N2CCCC2)c(-c2ccc(F)cc2)n1`, for which the cytotoxicity at 70.5 h was -5.4%.

`CN(C)CC(=O)N1Cc2nnn(C)c2C(COCC2CC2)C1` (configuration not stated): the cytotoxicity at 70.5 h was -11.8%.

`CC(C)OC[C@H]1CCC[C@]12CN(C(=O)C1CCOCC1)CCO2`: the cytotoxicity at 70.5 h is -8.49%.

For the compound `COCCN1CCN(c2nc(O)cc(Cc3ccccc3F)n2)CC1`, the cytotoxicity at 70.5 h is -5.81%.

In the case of `CCCC(=O)NC1CCCN(c2nc3ccccc3cc2CO)C1` (configuration not stated), the cytotoxicity at 70.5 h stood at 13.7%.

On to `CC(=O)Nc1nc(-c2ccccc2)c[nH]1`, for which the cytotoxicity at 70.5 h stood at 3.67%.

For `Cc1cc(C)c(CNC(=O)NCC(c2ccccc2)N(C)C)c(=O)[nH]1` (configuration not stated), the cytotoxicity at 70.5 h was determined as 7.25%.

In the case of `CN(C)[C@H]1CN(C(=O)c2ccc3sc4c(c3c2)CCNC4=O)C[C@@H]1O`, the cytotoxicity at 70.5 h is -1.45%.

Consider `COCCOc1ccc(NC(=O)N2CCCC2c2cccs2)cn1` (configuration not stated), for which the cytotoxicity at 70.5 h is -4.81%.

For `Cc1ccccc1CN1CCC(c2nn(CCN)c3nccnc23)C1` (configuration not stated), the cytotoxicity at 70.5 h was -0.306%.

For `CC(=O)N1CCCC(C(=O)N2CCN(c3cnn(C)c(=O)c3)CC2)C1` (configuration not stated), the cytotoxicity at 70.5 h worked out at 9.66%.
